Measured values reported in US8816135B2, “Trisphenol compound” (Honshu Chemical Industry Co., Ltd., priority 2009, dated 2014).

Assays:
[1] = Measurement of glass transition temperature by differential scanning calorimeter; assay type: physicochemical; settings: DSC, melted compound cooled and heated again, 10.0° C./min.
Method: Each compound was heated to a temperature 20° C. higher than the melting point of the compound in crystal form using a differential scanning calorimeter, and the melted compound was cooled and then heated again to measure the glass transition point. The measurement conditions were 40° C. as the temperature at which to start measurement, the melting point+20° C. as the temperature at which to end measurement, and 10.0° C./min. as the rate of heating.

[2] = Measurement of solubility in solvent (propyleneglycolmonomethylether acetate); settings: 28° C., largest amount that dissolved completely, added in 1 g steps to 10 g of solvent
Method: As for solubility, 10 g of propyleneglycolmonomethylether acetate was put in a container and 1 g of trisphenol compound was added while keeping the temperature at 28° C., and the mixture was agitated for 10 minutes to check for complete dissolution of the compound. […] The solubility (amount in grams per 100 g of solvent) was calculated from the largest amount of compound in grams that dissolved completely.

| melting point [°C] | SMILES | Glass transition temperature [1] [°C] | Solubility [2] |
| --- | --- | --- | --- |
|  | CC(C)(c1ccc(O)cc1)c1ccc(C(C)(c2ccc(O)cc2)c2ccc(O)cc2)cc1 [Comparative Example, 1-[α-methyl-α-(4-hydroxyphenyl)ethyl]-4-[α,α-bis(4-hydroxyphenyl)ethyl]benzene, reference compound] | 96 |  |
| 198 | CC(c1ccc(O)cc1)(c1ccc(O)cc1)c1ccc(-c2ccc(O)cc2)cc1 [Example 1, 1-[4-(4-hydroxyphenyl)phenyl]-1,1-bis(4-hydroxyphenyl)ethane] |  | 40 g/100 g of propyleneglycolmonomethylether acetate |
| 231 | Cc1cc(C(C)(c2ccc(-c3ccc(O)cc3)cc2)c2cc(C)c(O)c(C)c2)cc(C)c1O [Example 3, 1-[4-(4-hydroxyphenyl)phenyl]-1,1-bis(4-hydroxy-3,5-dimethylphenyl)ethane] | 104 | 10 g/100 g of propyleneglycolmonomethylether acetate |
